pIC50: −log10 of the molar value.
The compounds below were run against T1, human CRTH2 (Homo sapiens, UniProt Q9Y5Y4) (assay: Human CRTH2 Receptor Binding Assay (whole cell, [3H]ramatroban competition)). Conditions: CHO-K1 cells stably expressing human CRTH2 and G-alpha16; 20 nM [3H]ramatroban; 1 hour, room temperature.
T1 construct: expressed in transfected cells
T1 sequence (Q9Y5Y4 1-395): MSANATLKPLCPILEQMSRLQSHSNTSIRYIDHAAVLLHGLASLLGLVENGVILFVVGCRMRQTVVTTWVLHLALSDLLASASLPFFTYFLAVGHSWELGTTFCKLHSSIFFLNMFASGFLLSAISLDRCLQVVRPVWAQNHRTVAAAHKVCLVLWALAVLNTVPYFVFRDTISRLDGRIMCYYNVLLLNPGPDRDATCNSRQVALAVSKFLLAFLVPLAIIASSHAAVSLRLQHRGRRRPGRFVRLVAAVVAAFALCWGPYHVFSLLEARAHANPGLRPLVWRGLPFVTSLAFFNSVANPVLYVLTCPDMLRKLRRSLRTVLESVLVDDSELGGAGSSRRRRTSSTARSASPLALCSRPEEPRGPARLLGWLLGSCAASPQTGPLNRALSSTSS
From the text: A whole cell receptor binding assay using [^3H]ramatroban as the competing radioactive ligand was employed to evaluate the compound binding activity to human CRTH2. The radioactive ligand [^3H]ramatroban was synthesized according to Sugimoto et. al. (Eur. J. Pharmacol. 524, 30-37, 2005) to a specific activity of 42 Ci/mmol.
A cell line stably expressing human CRTH2 was established by transfecting CHO-K1 cells with two mammalian expression vectors that harbored human CRTH2 and G-alpha16 cDNAs, respectively, using FuGene® 6 transfection reagent (from Roche). Stable clones expressing CRTH2 were selected by staining each clone with BM16 (BD Pharmingen™ from BD Biosciences, a division of Becton, Dickinson and Company), which is a rat monoclonal antibody to human CRTH2. The cells were maintained as monolayer cultures in Ham's F-12 medium containing 10% fetal bovine serum, 100 units/mL penicillin, 100 μg/mL streptomycin, 2 mM glutamine, 0.5 mg/mL G418 (geneticin) for CRTH2, and 0.2 mg/mL hygromycin-B (for G-alpha 16). For whole cell receptor binding assay, the monolayer cells were rinsed once with PBS (phosphate buffered saline), dissociated using ethylenediaminetetraacetate (Versene™ EDTA from Lonza Inc.), and suspended in PBS containing 10 mM MgCl2 and 0.06% BSA (bovine serum albumin) at 1.5×10^6 cells/mL.
The binding reactions (0.2 mL) were performed in 96-well plates at room temperature in PBS containing 1.5×10^5 cells, 10 mM MgCl2, 0.06% BSA, 20 nM [^3H]ramatroban, and test compound at various concentrations. After 1 hour of binding reactions, the cells were harvested on GF™/B filter microplates (microtiter plates with embedded glass fiber from PerkinElmer, Inc.) and washed 5 times with PBS using a Filtermate™ Harvester (a cell harvester that harvests and washes cells from microplates from PerkinElmer, Inc.). The radioactivities bound to the cells were determined using a microplate scintillation counter (TopCount® NXT, from PerkinElmer, Inc.) after adding 50 μL of Microscint™ 20 scintillation fluid (from PerkinElmer, Inc.) to each well of the filter plates. The radioactivity from non-specific binding was determined by replacing compound with 10 μM of 15(R)-15-methyl PGD2 (from Cayman Chemical Company) in the reaction mixtures. The radioactivity bound to the cells in the absence of compound (total binding) was determined by replacing compound with 0.25% of DMSO (dimethyl sulfoxide) in the reaction mixture. Specific binding data were obtained by subtracting the radioactivity of non-specific binding from each binding data.
The IC50 value is defined as the concentration of the tested compound that is required for 50% inhibition of total specific binding. In order to calculate the IC50 value, the percent inhibition data were determined for 7 concentrations for each compound. The percent inhibition for a compound at each concentration was calculated according to the following formula, [1−(specific binding in the presence of compound)/(total specific binding)]×100. The IC50 value was then obtained by fitting the percent inhibition data to a sigmoidal dose-response (4 parameter logistic) model in the XLfit® software Excel add-in program [from ID Business Solutions Ltd., model 205, where F(x)=(A+(B−A)/(1+((C/x)^D)))].

Row | SMILES | pIC50
1 | CCOc1cc(C(F)(F)F)cc(S(=O)(=O)NC2CCCc3c2cnn3CC(=O)O)c1 (stereo not shown) [Example 3-1a, [4-(3-Ethoxy-5-trifluoromethyl-benzenesulfonylamino)-4,5,6,7-tetrahydro-indazol-1-yl]-acetic acid] | 6.84
2 | CCOc1ncc(S(=O)(=O)NC2CCCc3c2cnn3CC(=O)O)cc1Br (stereo not shown) [Example 3-2a, [4-(5-Bromo-6-ethoxy-pyridine-3-sulfonylamino)-4,5,6,7-tetrahydro-indazol-1-yl]-acetic acid] | 6.43
3 | O=C(O)Cn1ncc2c1CCCC2NS(=O)(=O)c1cnc(OC2CCCC2)c(Br)c1 (stereo not shown) [Example 3-3a, [4-(5-Bromo-6-cyclopentyloxy-pyridine-3-sulfonylamino)-4,5,6,7-tetrahydro-indazol-1-yl]-acetic acid] | 7.99
4 | CC(C)Oc1cc(C(F)(F)F)cc(S(=O)(=O)NC2CCCc3c2cnn3CC(=O)O)c1 (stereo not shown) [Example 3-4a, [4-(3-Isopropoxy-5-trifluoromethyl-benzenesulfonylamino)-4,5,6,7-tetrahydro-indazol-1-yl]-acetic acid] | 6.71
5 | CN([C@@H]1CCCc2c1cnn2CC(=O)O)S(=O)(=O)c1ccc(OC2CCCC2)c(Cl)c1 [Example 4-1a, {(R)-4-[(3-Chloro-4-cyclopentyloxy-benzenesulfonyl)-methyl-amino]-1-4,5,6,7-tetrahydro-indazol-1-yl}-acetic acid] | 7.00
6 | CN([C@@H]1CCCc2c1cnn2CC(=O)O)S(=O)(=O)c1cnc(OC2CCC2)c(Br)c1 [Example 4-2a, {(R)-4-[(5-Bromo-6-cyclobutoxy-pyridine-3-sulfonyl)-methyl-amino]-4,5,6,7-tetrahydro-indazol-1-yl}-acetic acid] | 7.41
7 | CC(C)Oc1ncc(S(=O)(=O)N(C)[C@@H]2CCCc3c2cnn3CC(=O)O)cc1Br [Example 4-3a, {(R)-4-[(5-Bromo-6-isopropoxy-pyridine-3-sulfonyl)-methyl-amino]-4,5,6,7-tetrahydro-indazol-1-yl}-acetic acid] | 7.43
8 | CN([C@@H]1CCCc2c1cnn2CC(=O)O)S(=O)(=O)c1cnc(OC2CCOCC2)c(Br)c1 [Example 4-4a, ((R)-4-{[5-Bromo-6-(tetrahydro-pyran-4-yloxy)-pyridine-3-sulfonyl]-methyl-amino}-4,5,6,7-tetrahydro-indazol-1-yl)-acetic acid] | 7.27
9 | CS(=O)(=O)c1cc(C(F)(F)F)cc(S(=O)(=O)N[C@@H]2CCCc3c2cnn3CC(=O)O)c1 [Example 5-1a, [(R)-4-(3-Methanesulfonyl-5-trifluoromethyl-benzenesulfonylamino)-4,5,6,7-tetra-hydro-indazol-1-yl]-acetic acid] | 8.51
10 | CN([C@@H]1CCCc2c1cnn2CC(=O)O)S(=O)(=O)c1cc(C(F)(F)F)cc(S(C)(=O)=O)c1 [Example 6-1a, {(R)-4-[(3-Methanesulfonyl-5-trifluoromethyl-benzenesulfonyl)-methyl-amino]-4,5,6,7-tetrahydro-indazol-1-yl}-acetic acid] | 8.60
11 | CCS(=O)(=O)c1cc(C(F)(F)F)cc(S(=O)(=O)N[C@@H]2CCCc3c2cnn3CC(=O)O)c1 [Example 7-1a, [(R)-4-(3-Ethanesulfonyl-5-trifluoromethyl-benzenesulfonylamino)-4,5,6,7-tetrahydro-indazol-1-yl]-acetic acid] | 8.59
12 | O=C(O)Cn1ncc2c1CCC[C@H]2NS(=O)(=O)c1cc(C(F)(F)F)cc(S(=O)(=O)C2CCCC2)c1 [Example 7-2a, [(R)-4-(3-Cyclopentane-sulfonyl-5-trifluoromethyl-benzenesulfonylamino)-4,5,6,7-tetrahydro-indazol-1-yl]-acetic acid] | 8.54
13 | CC[S+]([O-])c1cc(C(F)(F)F)cc(S(=O)(=O)N(C)[C@@H]2CCCc3c2cnn3CC(=O)O)c1 (stereo partly drawn) [Example 8-1a, {(R)-4-[(3-Ethanesulfinyl-5-trifluoromethyl-benzenesulfonyl)-methyl-amino]-4,5,6,7-tetrahydro-indazol-1-yl}-acetic acid] | 8.48
